For 18 compounds, mass density, activity coefficient and refractive index results are on record in the NIST ThermoML archive (doi:10.1021/je050316s).

Data set [1] in a line: xn = mol fraction of the nth substance listed. As to conditions: 303.15 K, 101.33 kPa, Liquid.
Data set [2] in a line: activity coefficient (dimensionless); of the first substance listed, at infinite dilution; xn = mol fraction of the nth substance listed. As to conditions: Liquid, Differential ebulliometry, x1 = 0.
Data set [3] in a line: refractive index (Na D-line) (dimensionless). The conditions noted are these: 293.15 K; 101.33 kPa; Liquid; Standard Abbe refractometry.

Numbers after ± are expanded uncertainties.

One may read the mass density as mass per unit of volume. Take `CCCCCCCCCC` [decane] + NC1CCCCC1: the mass density in data set [1] (x2 = 0) is 722.54 ± 0.38 kg/m3.

Take `NC1CCCCC1` [cyclohexylamine] + CCCCCCCCCC: the mass density in data set [1] (x1 = 0.1004) turned out to be 729.74 ± 0.37 kg/m3; in data set [1] (x1 = 0.2003), 737.86 ± 0.36 kg/m3; in data set [1] (x1 = 0.3002) it was 746.97 ± 0.35 kg/m3; in data set [1] (x1 = 0.3994), 757.29 ± 0.34 kg/m3; in data set [1] (x1 = 0.4998) it was 768.9 ± 0.32 kg/m3; in data set [1] (x1 = 0.5996), 782.09 ± 0.31 kg/m3. Moreover, the mass density in data set [1] (x1 = 0.6996) is 797.14 ± 0.29 kg/m3; in data set [1] (x1 = 0.8002) it was 814.52 ± 0.28 kg/m3; in data set [1] (x1 = 0.9006), 834.67 ± 0.26 kg/m3; in data set [1] (x1 = 1), 858.2 ± 0.23 kg/m3.

With `NC1CCCCC1` [cyclohexylamine] + CCc1ccccc1, the figures for the activity coefficient in data set [2] (353.15 K), in data set [2] (373.15 K) and in data set [2] (393.15 K) were 1.13 ± 0.07, 1.09 ± 0.07 and 1.06 ± 0.06, respectively.

As to `CCc1ccccc1` [ethylbenzene] + NC1CCCCC1, the activity coefficient in data set [2] (353.15 K) came out at 1.18 ± 0.07; in data set [2] (373.15 K), 1.16 ± 0.07; in data set [2] (393.15 K) it was 1.13 ± 0.07.

Turning to `CCCCCCCC` [octane] + NC1CCCCC1, the mass density in data set [1] (x2 = 0) is listed as 694.67 ± 0.39 kg/m3. Further, the activity coefficient came out at 1.36 ± 0.08 in data set [2] (353.15 K), 1.29 ± 0.08 in data set [2] (373.15 K) and 1.2 ± 0.07 in data set [2] (393.15 K).

For `CCCCCCCCCCC` [undecane] + NC1CCCCC1, the mass density in data set [1] (x2 = 0) worked out at 732.93 ± 0.36 kg/m3; in data set [1] (x2 = 0.1), 738.82 ± 0.35 kg/m3; in data set [1] (x2 = 0.2172), 747 ± 0.34 kg/m3; in data set [1] (x2 = 0.3066) it was 754.16 ± 0.34 kg/m3; in data set [1] (x2 = 0.4011) it was 762.69 ± 0.33 kg/m3; in data set [1] (x2 = 0.5005), 772.99 ± 0.32 kg/m3. The mass density amounted to 784.83 ± 0.3 kg/m3 in data set [1] (x2 = 0.5997), 798.79 ± 0.29 kg/m3 in data set [1] (x2 = 0.7005), 814.98 ± 0.27 kg/m3 in data set [1] (x2 = 0.7998) and 834.57 ± 0.26 kg/m3 in data set [1] (x2 = 0.8998).

As to `NC1CCCCC1` [cyclohexylamine] + CCCCCCCC, the mass density in data set [1] (x1 = 0.1036) amounted to 705.94 ± 0.38 kg/m3; in data set [1] (x1 = 0.2003), 717.44 ± 0.37 kg/m3; in data set [1] (x1 = 0.3006), 730.4 ± 0.36 kg/m3; in data set [1] (x1 = 0.4085), 745.58 ± 0.34 kg/m3; in data set [1] (x1 = 0.5001) it was 759.5 ± 0.33 kg/m3; in data set [1] (x1 = 0.5991) it was 775.85 ± 0.31 kg/m3. Moreover, the mass density is recorded as 793.85 ± 0.29 kg/m3 in data set [1] (x1 = 0.6998); 803.55 ± 0.28 kg/m3 in data set [1] (x1 = 0.7503); 813.83 ± 0.27 kg/m3 in data set [1] (x1 = 0.8018); 823.95 ± 0.27 kg/m3 in data set [1] (x1 = 0.8502); 858.2 ± 0.23 kg/m3 in data set [1] (x1 = 1). In addition, the activity coefficient in data set [2] (353.15 K) was found to be 1.61 ± 0.1; in data set [2] (373.15 K) it was 1.5 ± 0.09; in data set [2] (393.15 K), 1.42 ± 0.09.

Regarding `NC1CCCCC1` [cyclohexylamine] + CCCCCCCCCCC, the mass density in data set [1] (x1 = 1) is 858.2 ± 0.23 kg/m3.

For the compound `Cc1ccccc1` [toluene] + NC1CCCCC1, the activity coefficient in data set [2] (353.15 K) turned out to be 1.14 ± 0.07; in data set [2] (373.15 K) it was 1.13 ± 0.07; in data set [2] (393.15 K), 1.06 ± 0.06.

Broadly, the refractive index is a measure of how strongly the sample bends light. For the compound `O` [water], the refractive index in data set [3] turned out to be 1.3336 ± 0.0004.

`CCCCCCCCC` [nonane] + NC1CCCCC1: in data set [1] (x2 = 0), the mass density came out at 710.05 ± 0.38 kg/m3.

In the case of `NC1CCCCC1` [cyclohexylamine] + Nc1ccccc1, the mass density in data set [1] (x1 = 0.1161) came out at 992.51 ± 0.25 kg/m3; in data set [1] (x1 = 0.1936), 979.58 ± 0.23 kg/m3; in data set [1] (x1 = 0.281), 965.35 ± 0.22 kg/m3; in data set [1] (x1 = 0.3837) it was 949.2 ± 0.21 kg/m3; in data set [1] (x1 = 0.4907) it was 932.82 ± 0.21 kg/m3; in data set [1] (x1 = 0.5932), 917.38 ± 0.21 kg/m3. Also, the mass density in data set [1] (x1 = 0.7087) was found to be 900.24 ± 0.21 kg/m3; in data set [1] (x1 = 0.7738), 890.69 ± 0.21 kg/m3; in data set [1] (x1 = 0.8759), 875.75 ± 0.22 kg/m3; in data set [1] (x1 = 1), 858.2 ± 0.23 kg/m3. In addition, the activity coefficient came out at 0.84 ± 0.05 in data set [2] (383.15 K), 0.94 ± 0.06 in data set [2] (393.15 K) and 1.03 ± 0.06 in data set [2] (403.15 K).

In the case of `NC1CCCCC1` [cyclohexylamine] + CCCCCCC, the mass density is listed as 689.34 ± 0.43 kg/m3 in data set [1] (x1 = 0.1009); 703.99 ± 0.41 kg/m3 in data set [1] (x1 = 0.1999); 719.71 ± 0.39 kg/m3 in data set [1] (x1 = 0.3006); 735.92 ± 0.37 kg/m3 in data set [1] (x1 = 0.3983); 753.83 ± 0.35 kg/m3 in data set [1] (x1 = 0.5); 772.37 ± 0.33 kg/m3 in data set [1] (x1 = 0.5999). Further, the mass density in data set [1] (x1 = 0.6989) is recorded as 791.79 ± 0.31 kg/m3; in data set [1] (x1 = 0.7996), 812.68 ± 0.28 kg/m3; in data set [1] (x1 = 0.8993), 834.6 ± 0.26 kg/m3; in data set [1] (x1 = 1), 858.2 ± 0.23 kg/m3.

As for `Nc1ccccc1` [aniline] + NC1CCCCC1, the mass density in data set [1] (x2 = 0) is listed as 1012.94 ± 0.27 kg/m3.

Regarding `NC1CCCCC1` [cyclohexylamine] + CCCCCCCCC, the mass density in data set [1] (x1 = 0.0998) stood at 718.79 ± 0.37 kg/m3; in data set [1] (x1 = 0.1994), 728.47 ± 0.36 kg/m3; in data set [1] (x1 = 0.301), 739.41 ± 0.35 kg/m3; in data set [1] (x1 = 0.401), 751.43 ± 0.34 kg/m3; in data set [1] (x1 = 0.4998), 764.51 ± 0.32 kg/m3; in data set [1] (x1 = 0.6006), 779.38 ± 0.31 kg/m3. Moreover, the mass density in data set [1] (x1 = 0.7) is given as 795.69 ± 0.29 kg/m3; in data set [1] (x1 = 0.7955), 813.15 ± 0.28 kg/m3; in data set [1] (x1 = 0.8999), 834.62 ± 0.26 kg/m3; in data set [1] (x1 = 1) it was 858.2 ± 0.23 kg/m3.

Regarding `NC1CCCCC1` [cyclohexylamine] + Cc1ccccc1, the activity coefficient was 1.19 ± 0.07 in data set [2] (353.15 K) and 1.12 ± 0.07 in data set [2] (373.15 K).

Turning to `NC1CCCCC1` [cyclohexylamine] + O, the mass density in data set [1] (x1 = 0.1002) came to 956.7 ± 0.15 kg/m3; in data set [1] (x1 = 0.197), 935.34 ± 0.16 kg/m3; in data set [1] (x1 = 0.2237) it was 930.93 ± 0.16 kg/m3; in data set [1] (x1 = 0.3021), 919.43 ± 0.17 kg/m3; in data set [1] (x1 = 0.397) it was 908.71 ± 0.18 kg/m3; in data set [1] (x1 = 0.5016), 897.85 ± 0.19 kg/m3. The mass density in data set [1] (x1 = 0.6037) turned out to be 888.39 ± 0.2 kg/m3; in data set [1] (x1 = 0.6931), 880.7 ± 0.21 kg/m3; in data set [1] (x1 = 0.7801), 873.76 ± 0.21 kg/m3; in data set [1] (x1 = 0.9004), 864.97 ± 0.22 kg/m3; in data set [1] (x1 = 1), 858.2 ± 0.23 kg/m3.

In the case of `CCCCCCC` [heptane] + NC1CCCCC1, the mass density in data set [1] (x2 = 0) worked out at 675.32 ± 0.44 kg/m3.
